Assay results as given in the NIST ThermoML archive (doi:10.1021/je301294a).
± gives the expanded uncertainty stated by the source.

Conditions: Liquid, Closed cell (Static) method

Row | vapor or sublimation pressure (373.15 K) [kPa] | vapor or sublimation pressure (383.15 K) [kPa] | vapor or sublimation pressure (393.15 K) [kPa] | vapor or sublimation pressure (403.15 K) [kPa] | vapor or sublimation pressure (413.15 K) [kPa] | vapor or sublimation pressure (423.15 K) [kPa] | vapor or sublimation pressure (433.15 K) [kPa] | vapor or sublimation pressure (443.15 K) [kPa] | vapor or sublimation pressure (453.15 K) [kPa] | SMILES
1 | 0.5827 ± 0.036 | 0.9771 ± 0.025 | 1.586 ± 0.021 | 2.498 ± 0.027 | 3.829 ± 0.035 | 5.726 ± 0.048 | 8.371 ± 0.066 | 11.99 ± 0.091 | 16.84 ± 0.12 | CCCCCCCCCC(=O)OCC [ethyl decanoate]
2 | 11.35 ± 0.24 | 16.69 ± 0.14 | 23.94 ± 0.19 | 33.59 ± 0.27 | 46.18 ± 0.37 | 62.32 ± 0.49 | 82.69 ± 0.65 | 108.02 ± 0.85 | 139.11 ± 1.1 | CCCCCC(=O)OCC [ethyl hexanoate]
3 | 0.0326 ± 0.0025 | 0.0623 ± 0.0044 | 0.1143 ± 0.0078 | 0.2019 ± 0.013 | 0.3448 ± 0.022 | 0.5712 ± 0.036 | 0.9198 ± 0.024 | 1.443 ± 0.021 | 2.211 ± 0.025 | CCCCCCCCCCCCCC(=O)OCC [ethyl tetradecanoate]
4 | 0.444 ± 0.028 | 0.7516 ± 0.02 | 1.23 ± 0.031 | 1.954 ± 0.044 | 3.017 ± 0.065 | 4.543 ± 0.096 | 6.684 ± 0.14 | 9.627 ± 0.2 | 13.6 ± 0.1 | CCCCCCCCCCCCCC [tetradecane]
